The source of these data is patent US9487481B2, “Bicyclic compounds” (BRISTOL-MYERS SQUIBB COMPANY, priority 2013, dated 2016).

Where “and” joins values, the source holds several entries; their conditions need not be identical. Equal entries are not always repeated.

The test system of one data set is Male MRL/lpr mice. As to the kind of experiment: MRL/lpr Mouse Model of Spontaneous Lupus Erythematosus Assay. It is filed as in vivo. How it is done: MRL/lpr mouse model of spontaneous lupus erythematosus assay is an animal model for spontaneous lupus erythematosus.
Male MRL/lpr mice (14 weeks old; Jackson Laboratories; n=12-13) were orally dosed with Example 2 (as a solution in vehicle) or vehicle alone (polyethylene glycol 300) twice a week for 11 weeks starting on day 0. Urine protein levels (by Albustix) were measured on day 0 and throughout the study. […] Additional groups of mice received a daily oral dose of dexamethasone (Dex) either independently or in combination with twice weekly dosing with Example 2. Urine protein levels (by Albustix) were measured on day 0 and throughout the study. […] All procedures involving animals were reviewed and approved by the Institutional Animal Care Use Committee.
Example 2 was tested in the MRL/lpr mouse model of spontaneous lupus erythematosus assay described hereinabove and the results are shown in Table 9.
Example 2 and dexamethasone (Dex) either independently or in combination, were tested in the MRL/lpr mouse model of spontaneous lupus erythematosus assay described hereinabove and the results are shown in Table 10.

The test system of data set [1] is circulating lymphocytes. As to the kind of experiment: Rat Blood Lymphocyte Reduction (BLR) Assay. As to conditions: Lewis rats, oral, 24 hr post-dose; for Percent reduction vs. control (rat blood lymphocytes): hydrochloride. In kind it is in vivo. As for the experimental part:
(§1) Lewis rats were dosed orally with vehicle alone (polyethylene glycol 300, “PEG300”) or with 2-amino-2-[2-(4-octylphenyl)ethyl]-1,3-propanediol, hydrochloride (CAS: 162359-56-0) as a solution in the vehicle at doses of 0.1 mg/kg, 0.5 mg/kg and 3.0 mg/kg adjusted to reflect the free amount of test article. The results are provided in Table 4a and the level of lymphocyte reduction at 24 hours post-dose was maximal at 3.0 mg/kg. The percent reduction in lymphocytes is dose-related but the relationship is not linear, with non-proportional increases in dose being required to elicit sequentially greater reductions in lymphocyte counts. […] BALB/c mice were dosed orally with vehicle alone (polyethylene glycol 300, “PEG300”) or with Example 1, Example 2, Compound 6, Compound 8, or Comparative Compound 11. Compounds were dosed as a solution or suspension in the vehicle, adjusted to reflect the free amount of test article in the event that salt forms are utilized. Blood was drawn at 24 hr and blood lymphocyte counts were determined on an ADVIA® 120 Hematology Analyzer (Siemens Healthcare Diagnostics). The results were measured as a reduction in the percentage of circulating lymphocytes as compared to the vehicle treated group at the time of measurement. The results represent the average results of all animals within each treatment group (n=2-4).

Data set [2] concerns the target T1, S1P1 (Homo sapiens, UniProt P21453). As to the kind of experiment: Receptor [35S] GTPγS Binding Assay, S1P1/CHO cell membranes. It is filed as biochemical. The conditions noted are these: membranes prepared from S1P1/CHO cells.
Protocol: (§2) Compounds were loaded in a 384 FALCON® v-bottom plate (0.5 μl/well in a 11 point, 3-fold dilution). Membranes prepared from S1P1/CHO cells or EDG3-Ga15-bla HEK293T cells (EDG3 equivalent S1P3) were added to the compound plate (40 μl/well, final protein 3 μg/well) with MULTIDROP®. [^35S]GTP (1250 Ci/mmol, Perkin Elmer) was diluted in assay buffer: 20 mM HEPES, pH7.5, 10 mM MgCl2, 150 mM NaCl, 1 mM EGTA (ethylene glycol tetraacetic acid), 1 mM DTT (Dithiothreitol), 10 μM GDP, 0.1% fatty acid free BSA, and 10 μg/ml Saponin to 0.4 nM. 40 μl of the [^35S] GTP solution was added to the compound plate with a final concentration of 0.2 nM. The reaction was kept at room temperature for 45 min. At the end of incubation, all the mixtures in the compound plate were transferred to Millipore 384-well FB filter plates via the VELOCITY11® Vprep liquid handler. The filter plate was washed with water 4 times by using the manifold Embla plate washer and dried at 60° C. for 45 min. MicroScint 20 scintillation fluid (30 μl) was added to each well for counting on the Packard TOPCOUNT®. EC50 is defined as the agonist concentration that corresponds to 50% of the Ymax (maximal response) obtained for each individual compound tested.
(§3) A larger value for the GTPγS S1P3 EC50 value indicated less activity in the GTPγS S1P3 binding assay.
For the next data set, the target named is EDG3 equivalent S1P3 (Homo sapiens, UniProt Q99500). As to the kind of experiment: Receptor [35S] GTPγS Binding Assay, EDG3-Ga15-bla HEK293T cell membranes. It is filed as biochemical. The conditions noted are these: membranes prepared from EDG3-Ga15-bla HEK293T cells. (In general: GTPγS is a poorly hydrolysed GTP analogue; its binding reports G protein activation.)

For data set [3], the target named is T1, S1P1. The data set can be described thus: S1P1 Binding Assay (33P-S1P ligand, CHO membranes). The conditions noted are these: membranes from CHO cells expressing human S1P1, 0.03 nM 33P-S1P.
Protocol: Membranes were prepared from CHO cells expressing human S1P1. Cells pellets (1×10^9 cells/pellet) were suspended in buffer containing 20 mM HEPES (4-(2-hydroxyethyl)-1-piperazineethanesulfonic acid), pH 7.5, 50 mM NaCl, 2 mM EDTA (Ethylenediaminetetraacetic acid) and Protease Inhibitor cocktail (Roche), and disrupted on ice using the Polytron homogenizer. The homogenate was centrifuged at 20,000 rpm (48,000 g) and the supernatant was discarded. The membrane pellets were resuspended in buffer containing 50 mM HEPES, pH 7.5, 100 mM NaCl, 1 mM MgCl2, 2 mM EDTA and stored in aliquots at −80° C. after protein concentration determination.
Membranes (2 μg/well) and 0.03 nM final concentration of ^33P-S1P ligand (1 mCi/ml, Perkin Elmer or American Radiolabeled Chemicals) diluted in assay buffer (50 mM HEPES, pH7.4, 5 mM MgCl2, 1 mM CaCl2, 0.5% fatty acid free BSA (bovine serum albumin), 1 mM NaF) were added to the compound plates (384 FALCON® v-bottom plate (0.5 μl/well in a 11 point, 3-fold dilution). Binding was performed for 45 minutes at room temperature, terminated by collecting the membranes onto 384-well Millipore FB filter plates, and radioactivity was measured by TOPCOUNT®. The competition data of the test compounds over a range of concentrations was plotted as percentage inhibition of radioligand specific binding. […]
The next data set has as its target T2, GFP-tagged S1P1 receptor (Homo sapiens, UniProt P21453).
T2 construct: expressed in transfected cells; host or cells: CHO-K1 cells
The data set can be described thus: S1P1 Receptor Internalization Assay. In kind it is cell-based. As to conditions: CHO-K1 cells expressing GFP-tagged S1P1, 45 min. As for the experimental part:
CHO-K1 cells expressing a GFP-tagged S1P1 receptor were plated in 384-well poly-D-lysine coated tissue culture plates at 4×10^3 cells/well in 50 μl assay media (F12 with L-glutamine, 10% charcoal/dextran-treated FBS, 1× penicillin-streptomycin, 1M HEPES). Cell plates were incubated overnight at 37° C./5% CO2. Test compound were introduced to the cell plate from a compound source plate at 11 point, 3 fold serial dilutions and then the assay plates were incubated at 37° C./5% CO2 for 45 min. Cells were fixed and stained with 6% formaldehyde and 15 μg/ml Hoechst dye in PBS (Ca^2+/Mg^2+ free) at room temperature for 15 minutes. Cell plates were washed 4 times with PBS (Ca^2+/Mg^2+ free) with addition of 50 μl/PBS prior to plate sealing. Images were acquired by the Cellomics ARRAYSCAN® VTI high content imager. Data analysis for EC50 determination relative to internal control compound was accomplished using the Compartmental Analysis BioApplication on the Array Scan. The EC50 is defined as the agonist concentration that corresponds to 50% of the Ymax (maximal response) obtained for each individual compound tested and was quantified using the 4 parameter logistic equation to fit the data.

The test system of a further data set is mice. As to the kind of experiment: Pulmonary Toxicity Assay (BAL protein). It is filed as in vivo. As to conditions: oral, 30 mg/kg, 24 hr post-dose; for Relative BAL protein vs. control: >1 = increased pulmonary toxicity. How it is done: The analysis of protein levels in bronchoalveolar lavage (BAL) fluid obtained from an animal were used to gauge pulmonary side effects. Increased levels of protein in BAL fluid were indicative of undesired pulmonary effects, such as pulmonary edema. Example 1, Example 2, Compound 6, Compound 8, and Compound 11 were administered orally to mice at a dose of 30 mg/kg. At 24 hours post dose, the mice were euthanized with intraperitoneal barbiturate overdose. The animals were placed in a supine position, a skin incision was made and blunt dissection followed to expose the trachea. The trachea was incised and a catheter was inserted 4-6 mm into the trachea. Phosphate-buffered saline (PBS; 1 mL/mouse) was infused into the lungs and then aspirated. The concentration of the BAL protein in the recovered BAL fluid was determined on an ADVIA® 1800 Chemistry Analyzer (Siemens Healthcare Diagnostics). The results represent the average results of all animals within each treatment group (n=2-4).
A value for the relative BAL protein versus control of greater than 1 indicated an increase in pulmonary toxicity compared to the administration of vehicle only. In this study, as reported in Table 5, the administration of Examples 1 and 2 gave relative BAL protein levels of 0.99 and 0.96, indicating no increase in the pulmonary toxicity. The administration of Compound 8 gave a relative BAL protein level of 1.03, which indicated slight or no increase in pulmonary toxicity. In contrast, administration of Compound 6 and Compound 11 gave relative BAL protein levels of 1.94 and 1.33, indicating increased pulmonary toxicity.

Data set [4] deals with circulating lymphocytes. As to the kind of experiment: Mouse Blood Lymphocyte Reduction (BLR) Assay. In kind it is in vivo. As to conditions: BALB/c mice, oral, 1 mg/kg, 24 hr post-dose. As for the experimental part: as §1
Another data set concerns Male Lewis rats. The data set can be described thus: Rat Adjuvant Induced Arthritis Assay (AA). It is filed as in vivo. The conditions noted are these: prophylactic. How it is done:
The rat adjuvant-induced arthritis model is an animal model for human rheumatoid arthritis.
Male Lewis rats (150-175 g; Harlan, n=8 treatment group) were immunized at the base of the tail with 100 μl of 10 mg/ml freshly ground Mycobacterium butyricum (Difco Laboratories) in incomplete Freund's adjuvant (sigma). Animals were dosed once daily with the test article (as a solution or suspension in the vehicle) or vehicle alone (polyethylene glycol 300, “PEG300”) starting from the day of immunization. The volumes of their hind paws were measured in a water displacement plethysmometer (Ugo Basile, Italy). The baseline paw measurements were taken before onset of the disease (between day 7 to day 10). The paw measurements were then taken three times a week until the end of the study on day 20 to 21. All procedures involving animals were reviewed and approved by the Institutional Animal Care Use Committee.
Example 2 of the present invention was tested in the Rat Adjuvant Induced Arthritis assay described hereinabove and the results are shown in Table 7.

The next data set relates to CB-17 SCID mice. The data set can be described thus: Mouse T Cell Transfer Induced Colitis Assay. The conditions noted are these: q.o.d. oral; for Inflammation/Damage (Histology), Mean: 6 wk. In kind it is in vivo. As for the experimental part: The mouse T Cell transfer induced colitis assay is an animal model for human colitis.
Colitis was induced in CB-17 SCID mice by the adoptive transfer of FACS sorted CD4^+CD45RB^high T cells from BALB/c mice (3×10^5/mouse, i.p.). Disease activities were monitored once a week for the initial 3 weeks and 3×/week for the subsequent weeks on the basis of body weight, soft stool or diarrhea, and anorectal prolapse. Animals were dosed orally every other day (q.o.d.) with the test article or vehicle starting from the day of T cell transfer. Mice were sacrificed 6 wk after T cell reconstitution and analyzed for bowel inflammation based on histological examination of H&E stained colon tissues. All procedures involving animals were reviewed and approved by the Institutional Animal Care Use Committee.
Example 2 was tested in the mouse T cell transfer induced colitis model described hereinabove and the results are shown in Table 8.

T1 sequence (P21453 whole entry): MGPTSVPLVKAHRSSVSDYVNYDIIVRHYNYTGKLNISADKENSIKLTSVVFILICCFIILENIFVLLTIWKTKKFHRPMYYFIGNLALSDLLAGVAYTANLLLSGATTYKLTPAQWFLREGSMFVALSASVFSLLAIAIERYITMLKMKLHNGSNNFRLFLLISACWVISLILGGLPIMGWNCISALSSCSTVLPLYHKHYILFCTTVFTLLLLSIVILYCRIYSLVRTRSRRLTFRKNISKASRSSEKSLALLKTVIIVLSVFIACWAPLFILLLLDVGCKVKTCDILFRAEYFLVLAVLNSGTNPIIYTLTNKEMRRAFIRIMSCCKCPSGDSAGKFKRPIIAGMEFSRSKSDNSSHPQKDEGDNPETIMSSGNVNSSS
Sequence of EDG3 equivalent S1P3 (Q99500 whole entry): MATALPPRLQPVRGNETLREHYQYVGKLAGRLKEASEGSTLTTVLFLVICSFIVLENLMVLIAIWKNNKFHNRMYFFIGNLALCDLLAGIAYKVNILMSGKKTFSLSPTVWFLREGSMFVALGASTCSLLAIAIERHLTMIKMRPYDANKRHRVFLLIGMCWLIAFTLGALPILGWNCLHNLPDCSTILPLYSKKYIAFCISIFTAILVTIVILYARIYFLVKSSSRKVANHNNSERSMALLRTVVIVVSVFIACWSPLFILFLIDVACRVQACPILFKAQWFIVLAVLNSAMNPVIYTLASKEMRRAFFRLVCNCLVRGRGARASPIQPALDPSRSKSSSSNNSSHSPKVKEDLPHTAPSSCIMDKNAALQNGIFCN
T2 sequence (P21453 whole entry): as the sequence (P21453 whole entry) above
Protocol for EDG3 equivalent S1P3: as §2, §3

For the compound `C[C@@H]1C[C@H]2[C@@H]3CCC4=CC(=O)C=C[C@]4(C)[C@@]3(F)[C@@H](O)C[C@]2(C)[C@@]1(O)C(=O)CO` [Dex, dexamethasone, reference compound], the “% Mice with Proteinurea > 100 mg/dL” value amounted to 50% in the data set with Male MRL/lpr mice (24 weeks of age, 0.1 mg/kg q.d. oral) and 10% in the data set on Male MRL/lpr mice (24 weeks of age, 0.5 mg/kg q.d. oral).
Turning to `CCCCCCCCc1ccc(CCC(N)(CO)CO)cc1.Cl` [2-amino-2-[2-(4-octylphenyl)ethyl]-1,3-propanediol, hydrochloride], the results for the “Rat blood lymphocytes, Compound Mean” value with circulating lymphocytes [1] (0.1 mg/kg), with circulating lymphocytes [1] (0.5 mg/kg) and in the data set on circulating lymphocytes [1] (3.0 mg/kg) were 2.78, 1.64 and 1.02, respectively. Also, the “Percent reduction vs. control (rat blood lymphocytes)” value amounted to 69% with circulating lymphocytes [1] (0.1 mg/kg), 82% with circulating lymphocytes [1] (0.5 mg/kg) and 89% with circulating lymphocytes [1] (3.0 mg/kg).
Broadly, the EC50 is the concentration needed to bring the measured effect to its halfway point. In general, IC50 refers to the concentration at which inhibition is half-maximal. On to `CCCCCC[C@@H]1CCc2cc([C@H]3CC[C@](N)(COP(=O)(O)O)C3)ccc2C1` [Example 10, (1R,3 S)-1-Amino-3-((R)-6-hexyl-5,6,7,8-tetrahydronaphthalen-2-yl) cyclopentyl)methyl dihydrogen phosphate], for which the EC50 on S1P1 [2] is 0.9 nM; at EDG3 equivalent S1P3 it was over 62500 nM. This compound registered an IC50 on S1P1 [3] of 0.01 nM.
`CCCCCC[C@@H]1CCc2cc([C@@H]3CC[C@](N)(COP(=O)(O)O)C3)ccc2C1` [Example 9, ((1R,3R)-1-Amino-3-((R)-6-hexyl-5,6,7,8-tetrahydronaphthalen-2-yl)cyclopentyl)methyl dihydrogen phosphate] came in with an EC50 on GFP-tagged S1P1 receptor of 361 nM.
For the compound `CCCCCC[C@H]1CCc2cc([C@H]3CC[C@](N)(CO)C3)ccc2C1` [Compound 8, ((1R,3S)-1-amino-3-((S)-6-hexyl-5,6,7,8-tetrahydronaphthalen-2-yl)cyclopentyl)methanol], in the data set with mice, the “Mouse BAL protein level, Compound Mean” value was 7.5 mg/dL and the “Relative BAL protein vs. control” value is recorded as 1.03. Further, in the data set with circulating lymphocytes [4], the “Mouse blood lymphocytes, Compound Mean” value is listed as 2.4 and the “Percent reduction vs. control (mouse blood lymphocytes)” value was found to be 59%.
As for `CCCCCC[C@@H]1CCc2cc([C@@H]3CC[C@](N)(CO)C3)ccc2C1` (single isomer, unassigned) [Example 1], in the data set on mice, the “Mouse BAL protein level, Compound Mean” value came to 8.25 mg/dL and the “Relative BAL protein vs. control” value was found to be 0.99. In addition, in the data set with circulating lymphocytes [4], the “Mouse blood lymphocytes, Compound Mean” value is on record as 0.7 and the “Percent reduction vs. control (mouse blood lymphocytes)” value is 88%.
Consider `CCCCCC[C@H]1CCc2cc([C@@H]3CC[C@](N)(CO)C3)ccc2C1` [Compound 6, ((1R,3R)-1-amino-3-((S)-6-hexyl-5,6,7,8-tetrahydronaphthalen-2-yl)cyclopentyl)methanol], for which, in the data set with mice, the “Mouse BAL protein level, Compound Mean” value amounted to 14.3 mg/dL; the “Relative BAL protein vs. control” value was 1.94 and 1.96. Moreover, in the data set with circulating lymphocytes [4], the “Mouse blood lymphocytes, Compound Mean” value was found to be 1.2 and the “Percent reduction vs. control (mouse blood lymphocytes)” value was 78%.
Take `CCCCCC[C@@H]1CCc2cc([C@H]3CC[C@](N)(CO)C3)ccc2C1` (single isomer, unassigned) [Example 2]: the figures for the “Paw Swelling on Day 20, Mean” value in the data set on Male Lewis rats (0.15 mg/kg once daily oral), in the data set on Male Lewis rats (0.5 mg/kg once daily oral) and in the data set with Male Lewis rats (1.5 mg/kg once daily oral) were 1.64 mL, 0.70 mL and 0.16 mL, respectively. For the same compound, the “% Mice with Proteinurea > 100 mg/dL” value in the data set with Male MRL/lpr mice (24 weeks of age, 2 mg/kg, 2x week oral) amounted to 20%; with Male MRL/lpr mice (25 weeks of age, 0.05 mg/kg, 2x week oral), 25%; in the data set with Male MRL/lpr mice (25 weeks of age, 0.4 mg/kg, 2x week oral), 17%; with Male MRL/lpr mice (25 weeks of age, 2 mg/kg, 2x week oral) it was 10%. For the same compound, the “Mouse BAL protein level, Compound Mean” value in the data set with mice came out at 8.0 mg/dL. Moreover, the “Relative BAL protein vs. control” value in the data set with mice came out at 0.96. Also, the “Week 6 Percent Body Weight Changes, Mean (from 100%)” value amounted to 100% → 98.7% in the data set on CB-17 SCID mice (1 mg/kg) and 100% → 103.7% in the data set on CB-17 SCID mice (5 mg/kg). The “Inflammation/Damage (Histology), Mean” value is 5.46 with CB-17 SCID mice (1 mg/kg) and 3.71 in the data set with CB-17 SCID mice (5 mg/kg). For the same compound, the “Mouse blood lymphocytes, Compound Mean” value with circulating lymphocytes [4] turned out to be 0.54. In the data set on circulating lymphocytes [4], the “Percent reduction vs. control (mouse blood lymphocytes)” value is listed as 90%.
On to `CCCCCOc1ccc2cc([C@@H]3CC[C@](N)(CO)C3)ccc2c1` [Comparative Compound 11, reference compound], for which, in the data set with mice, the “Mouse BAL protein level, Compound Mean” value turned out to be 13.3 mg/dL and the “Relative BAL protein vs. control” value is reported as 1.33. Besides, in the data set on circulating lymphocytes [4], the “Mouse blood lymphocytes, Compound Mean” value amounted to 2.18 and the “Percent reduction vs. control (mouse blood lymphocytes)” value is given as 52%.
